Measurements as given in ChEMBL document CHEMBL1201862, “PubChem BioAssay data set” (2004).
Calls of active or inactive are those of the source. Cut-off read from the data, not from the text of the source: actives have a measured IC50 and inactives only a lower limit.

Legend:
Assay type in all cases: functional
[1] = target: T1, Sentrin-specific protease 6 (Homo sapiens, UniProt Q9GZR1);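 note: Luminescence-based dose-response confirmatory assay of SENP6 inhibition, following up an ultra-high-throughput screen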
T1 sequence (Q9GZR1 whole entry): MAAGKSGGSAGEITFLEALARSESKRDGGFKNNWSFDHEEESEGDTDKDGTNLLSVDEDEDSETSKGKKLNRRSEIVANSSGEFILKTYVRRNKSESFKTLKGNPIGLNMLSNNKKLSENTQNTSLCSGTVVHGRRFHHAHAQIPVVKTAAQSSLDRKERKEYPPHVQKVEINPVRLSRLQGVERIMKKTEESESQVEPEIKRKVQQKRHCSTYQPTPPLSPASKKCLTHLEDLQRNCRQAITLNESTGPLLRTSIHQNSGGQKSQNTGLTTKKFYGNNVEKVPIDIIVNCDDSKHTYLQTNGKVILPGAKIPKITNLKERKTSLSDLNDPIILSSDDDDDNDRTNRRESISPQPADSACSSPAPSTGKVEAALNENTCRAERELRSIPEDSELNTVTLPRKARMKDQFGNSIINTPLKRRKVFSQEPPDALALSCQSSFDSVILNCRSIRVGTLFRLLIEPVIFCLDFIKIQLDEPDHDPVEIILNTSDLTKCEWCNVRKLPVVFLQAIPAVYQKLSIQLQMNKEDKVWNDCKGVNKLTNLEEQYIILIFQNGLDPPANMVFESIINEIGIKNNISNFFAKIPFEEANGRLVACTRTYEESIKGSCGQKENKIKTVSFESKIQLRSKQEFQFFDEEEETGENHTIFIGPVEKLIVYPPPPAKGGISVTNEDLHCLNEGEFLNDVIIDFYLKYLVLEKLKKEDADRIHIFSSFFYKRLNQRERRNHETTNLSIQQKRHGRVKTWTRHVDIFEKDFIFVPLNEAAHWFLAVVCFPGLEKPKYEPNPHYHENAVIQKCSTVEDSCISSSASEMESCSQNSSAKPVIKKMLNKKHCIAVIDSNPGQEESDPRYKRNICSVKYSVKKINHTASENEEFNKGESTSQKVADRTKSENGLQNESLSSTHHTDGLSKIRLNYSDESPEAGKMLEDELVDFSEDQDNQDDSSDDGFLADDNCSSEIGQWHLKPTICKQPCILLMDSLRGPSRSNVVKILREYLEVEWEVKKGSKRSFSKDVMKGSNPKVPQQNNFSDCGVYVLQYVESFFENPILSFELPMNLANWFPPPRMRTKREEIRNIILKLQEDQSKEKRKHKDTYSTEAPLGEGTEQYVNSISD

[2] = target: T2, Sentrin-specific protease 8 (Homo sapiens, UniProt Q96LD8);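 note: luminescence read-out of SENP8 inhibition, dose-response confirmation following an ultra-high-throughput screen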
T2 sequence (Q96LD8 whole entry): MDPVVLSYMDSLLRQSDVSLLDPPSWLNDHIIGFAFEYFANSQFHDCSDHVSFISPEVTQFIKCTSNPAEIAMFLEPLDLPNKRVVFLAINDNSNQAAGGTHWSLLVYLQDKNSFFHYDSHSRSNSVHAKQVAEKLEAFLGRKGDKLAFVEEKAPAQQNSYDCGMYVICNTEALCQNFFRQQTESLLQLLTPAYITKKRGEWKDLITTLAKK

[3] = target: T3, Sentrin-specific protease 7 (Homo sapiens, UniProt Q9BQF6);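 note: Luminescence-based dose-response confirmation of ultra-high-throughput screening hits, measuring inhibition of SENP7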
T3 sequence (Q9BQF6 whole entry): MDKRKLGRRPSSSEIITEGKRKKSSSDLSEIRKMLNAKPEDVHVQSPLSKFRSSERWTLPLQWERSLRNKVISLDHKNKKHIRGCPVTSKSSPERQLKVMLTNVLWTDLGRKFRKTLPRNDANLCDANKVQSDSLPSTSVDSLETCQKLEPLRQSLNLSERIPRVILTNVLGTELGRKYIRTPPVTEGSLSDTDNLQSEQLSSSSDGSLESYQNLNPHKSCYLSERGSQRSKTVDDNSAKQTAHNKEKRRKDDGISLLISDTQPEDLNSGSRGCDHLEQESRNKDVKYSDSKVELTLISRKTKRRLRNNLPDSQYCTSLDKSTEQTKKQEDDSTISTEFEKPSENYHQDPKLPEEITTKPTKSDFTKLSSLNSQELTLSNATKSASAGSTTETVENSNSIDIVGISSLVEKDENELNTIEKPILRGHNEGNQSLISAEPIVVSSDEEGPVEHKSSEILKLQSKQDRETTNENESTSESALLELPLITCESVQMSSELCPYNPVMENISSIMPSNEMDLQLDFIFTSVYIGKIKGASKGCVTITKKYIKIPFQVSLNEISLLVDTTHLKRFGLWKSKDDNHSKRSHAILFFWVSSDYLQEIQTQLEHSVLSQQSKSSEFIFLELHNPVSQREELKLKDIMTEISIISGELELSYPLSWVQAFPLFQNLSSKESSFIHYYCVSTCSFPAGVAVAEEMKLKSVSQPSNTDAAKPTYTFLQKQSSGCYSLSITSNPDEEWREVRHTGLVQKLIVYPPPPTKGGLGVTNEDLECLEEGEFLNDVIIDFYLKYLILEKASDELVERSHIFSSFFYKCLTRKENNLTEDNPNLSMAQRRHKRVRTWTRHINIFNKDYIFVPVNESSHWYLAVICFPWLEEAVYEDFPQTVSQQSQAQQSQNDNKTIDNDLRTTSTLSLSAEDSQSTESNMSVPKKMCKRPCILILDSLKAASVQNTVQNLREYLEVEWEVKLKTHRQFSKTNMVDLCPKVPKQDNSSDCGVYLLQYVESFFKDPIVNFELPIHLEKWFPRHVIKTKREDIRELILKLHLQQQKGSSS

Caspase-3 = target: T4, Caspase-3 (Homo sapiens, UniProt P42574);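 note: Dose-response selectivity test against caspase-3 for candidate inhibitors of sentrin-specific proteases (SENPs)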
T4 sequence (P42574 whole entry): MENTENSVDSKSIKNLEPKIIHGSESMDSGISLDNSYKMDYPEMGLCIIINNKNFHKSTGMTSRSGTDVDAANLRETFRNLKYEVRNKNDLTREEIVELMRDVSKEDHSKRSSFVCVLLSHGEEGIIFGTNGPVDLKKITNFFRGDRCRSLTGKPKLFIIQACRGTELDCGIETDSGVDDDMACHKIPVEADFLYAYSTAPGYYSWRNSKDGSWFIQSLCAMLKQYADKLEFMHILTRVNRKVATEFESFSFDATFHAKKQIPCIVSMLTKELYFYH

Measured: IC50

Nc1c(N2CCCC2)cc(Cl)c2nonc12
active: [1] 3.02 µM | [2] 4.09 µM | [3] 4.09 µM | Caspase-3 9.05 µM

O=C(NNc1cc(N2CCOCC2)nc(N2CCOCC2)n1)c1ccc([N+](=O)[O-])cc1
active: [1] 6.72 µM | [2] 6.99 µM | [3] 6.14 µM | Caspase-3 32.4 µM

Oc1ccc(/N=C/c2ccc(OCc3ccccc3)cc2)cc1
active: [1] 16.4 µM | [2] 24.1 µM | [3] 14.6 µM | Caspase-3 14.3 µM
